Source: US8809352B2, “Sulfonamides as inhibitors of Bcl-2 family proteins for the treatments of cancer” (Novartis AG, priority 2009, dated 2014)

Target: BCL2 (Homo sapiens, UniProt P10415)
Assay: Biacore SPR solution inhibition assay of BCL-2 binding to peptide derivatized sensor surfaces
Settings: SPR competition; 56 nM BCL2 pre-equilibrated with compound one hour; biotinylated BAK, BAD and NOXA peptide surfaces; 25° C.
Excerpt: The present method includes utility of a Surface plasmon resonance (SPR)-based biosensor (Biacore™ GE Healthcare, Uppsala, Sweden) to characterize BCL-2 inhibitors.
Biacore™ utilizes the phenomenon of surface plasmon resonance (SPR) to detect and measure binding interactions. In a typical Biacore experiment, one of the interacting molecules (ligand) is immobilized on a flexible dextran matrix while the interacting partner (analyte) is allowed to flow across that surface. A binding interaction results in an increase in mass on the sensor surface and a corresponding direct change in the refractive index of the medium in the vicinity of the sensor surface. Changes in refractive index or signal are recorded in resonance units (R.U.) Signal changes due to association and dissociation of complexes are monitored in a non-invasive manner, continuously and in real-time, the results of which are reported in the form of a sensorgram. The SPR assay is configured to examine solution inhibition of BCL-2 binding to peptide derivatized sensor surfaces to generate […] values as a measure of inhibitor potency.
Biacore™ A100 (GE Healthcare, Uppsala, Sweden) was used to conduct all experiments reported herein. Sensor surface preparation and all interaction analyses experiments were performed at 25° C. Reagents were purchased from GE Healthcare. Running buffer containing 10 mM Hepes, pH7.4, 150 mM sodium chloride, 1.25 mM Dithiothreitol, 3% Dimethyl sulfoxide and 0.05% polysorbate 20 were utilized throughout all analyses.
Biotinylated BAK, BAD and NOXA peptides were diluted to 10 nM in running buffer and captured onto a sensor surface pre-derivatized with streptavidin (sensor chip SA) to peptide surface densities in the range 50-100 R.U. Peptide captured surfaces were blocked with 500 μM PEO2-Biotin.
Interaction analyses were performed by first equilibrating each sample within a 6 point three fold compound dilution series in the range 16 μM to 0.004 nM with 56 nM BCL2 for one hour during instrument start-up procedures. Protein compound mixtures were then injected over each peptide surface in parallel for 60 seconds at a flow-rate of 30 μL/min. 56 nM BCL2 control samples were also prepared and run at regular intervals during the assay. Surface regeneration was performed at the end of each analysis cycle by two 30 second injections of 10 mM Glycine, pH 2.5, 1M Sodium Chloride, 0.05% polysorbate 20. Samples and control compound samples were run in duplicate and controls are also run at regular intervals during the assay to monitor surface and assay performance.
Data analyses are carried out using Biacore™ A100 evaluation software v1.1 to validate assay quality. Binding level report points were used relative to BCL2 control samples to calculate % inhibition values for each compound protein mixture.

Chain of BCL2 (P10415 whole entry): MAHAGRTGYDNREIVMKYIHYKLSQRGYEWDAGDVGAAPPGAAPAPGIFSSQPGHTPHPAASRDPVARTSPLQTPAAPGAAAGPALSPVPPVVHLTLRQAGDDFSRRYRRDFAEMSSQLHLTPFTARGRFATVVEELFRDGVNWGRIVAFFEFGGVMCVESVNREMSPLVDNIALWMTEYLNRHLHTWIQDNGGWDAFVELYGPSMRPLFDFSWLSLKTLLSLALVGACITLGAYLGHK

| SMILES | IC50 |
| --- | --- |
| CN(C)CC[C@H](CSc1ccccc1)Nc1ccc(S(=O)(=O)Nc2ncnc3c2CCN(C2CCN(CC4=C(c5ccc(Cl)cc5)CCC(C)(C)C4)CC2)C3)cc1S(=O)(=O)C(F)(F)F [Example 10, (R)-N-(7-(1-((2-(4-chlorophenyl)-5,5-dimethylcyclohex-1-enyl)methyl)piperidin-4-yl)-5,6,7,8-tetrahydropyrido[3,4-d]pyrimidin-4-yl)-4-(4-(dimethylamino)-1-(phenylthio)butan-2-ylamino)-3-(trifluoromethylsulfonyl)benzenesulfonamide] | 31 nM |
| O=S(=O)(Nc1ncnc2c1CN(C1CCN(Cc3ccccc3-c3ccc(Cl)cc3)CC1)C2)c1ccc(N[C@H](CCN2CCOCC2)CSc2ccccc2)c(S(=O)(=O)C(F)(F)F)c1 [Example 72, (R)-N-(6-(1-((4′-chlorobiphenyl-2-yl)methyl)piperidin-4-yl)-6,7-dihydro-5H-pyrrolo[3,4-d]pyrimidin-4-yl)-4-(4-morpholino-1-(phenylthio)butan-2-ylamino)-3-(trifluoromethylsulfonyl)benzenesulfonamide] | 971 nM |
| CN(C)CC[C@H](CSc1ccccc1)Nc1ccc(S(=O)(=O)Nc2ncnc3c2CCN(C2CCN(Cc4ccccc4-c4ccc(Cl)cc4)CC2)C3)cc1C#N [Example 54, (R)-N-(7-(1-((4′-chlorobiphenyl-2-yl)methyl)piperidin-4-yl)-5,6,7,8-tetrahydropyrido[3,4-d]pyrimidin-4-yl)-3-cyano-4-(4-(dimethylamino)-1-(phenylthio)butan-2-ylamino)benzenesulfonamide] | 173 nM |
| O=S(=O)(Nc1ncnc2c1CCN(C1CCN(Cc3ccccc3-c3ccc(Cl)cc3)CC1F)C2)c1ccc(N[C@H](CCN2CCOCC2)CSc2ccccc2)c(S(=O)(=O)C(F)(F)F)c1 (stereo partly drawn) [Example 65, N-(7-(1((4′-Chlorobiphenyl-2-yl)methyl)-3-fluoropiperidin-4-yl)-5,6,7,8-tetrahydropyrido[3,4-d]pyrimidin-4-yl)-4-((R)-4-morpholino-1-(phenylthio)butan-2-ylamino)-3-(trifluoromethylsulfonyl)benzenesulfonamide] | 181 nM |
| CC(c1ccccc1-c1ccc(Cl)cc1)N1CCC(N2CCc3c(nc(C(F)(F)F)nc3NS(=O)(=O)c3ccc(N[C@H](CCN(C)C)CSc4ccccc4Cl)c(S(=O)(=O)C(F)(F)F)c3)C2)CC1 (stereo partly drawn) [Example 34, N-(7-(1-(1-(4′-chlorobiphenyl-2-yl)ethyl)piperidin-4-yl)-2-(trifluoromethyl)-5,6,7,8-tetrahydropyrido[3,4-d]pyrimidin-4-yl)-4-((R)-1-(2-chlorophenylthio)-4-(dimethylamino)butan-2-ylamino)-3-(trifluoromethylsulfonyl)benzenesulfonamide] | 99 nM |
| [2H]C1(N2CCc3c(ncnc3NS(=O)(=O)c3ccc(N[C@H](CCN4CCN(CC)CC4)CSc4ccccc4)c(S(=O)(=O)C(F)(F)F)c3)C2)CCN(Cc2cc(F)ccc2-c2ccc(Cl)cc2)CC1 [Example 89, (R)-N-(7-(1-((4′-chloro-4-fluorobiphenyl-2-yl)methyl)-4-deuteropiperidin-4-yl)-5,6,7,8-tetrahydropyrido[3,4-d]pyrimidin-4-yl)-4-(4-(4-ethylpiperazin-1-yl)-1-(phenylthio)butan-2-ylamino)-3-(trifluoromethylsulfonyl)benzenesulfonamide] | 35 nM |
| COC1(Cc2ccccc2Br)CCC(N2CCc3c(ncnc3NS(=O)(=O)c3ccc(N[C@H](CCN(C)C)CSc4ccccc4)c(S(=O)(=O)C(F)(F)F)c3)C2)CC1 (stereo partly drawn) [Example 61, (R)-N-(7-(4-(2-bromobenzyl)-4-methoxycyclohexyl)-5,6,7,8-tetrahydropyrido[3,4-d]pyrimidin-4-yl)-4-(4-(dimethylamino)-1-(phenylthio)butan-2-ylamino)-3-(trifluoromethylsulfonyl)benzenesulfonamide] | 306 nM |
| CC(c1ccccc1-c1ccc(Cl)cc1)N1CCC(N2CCc3c(ncnc3NS(=O)(=O)c3ccc(N[C@H](CCN(C)C)CSc4ccccc4)c(S(=O)(=O)C(F)(F)F)c3)C2)CC1 (stereo partly drawn) [Example 51, N-(7-(1-(1-(4′-chlorobiphenyl-2-yl)ethyl)piperidin-4-yl)-5,6,7,8-tetrahydropyrido[3,4-d]pyrimidin-4-yl)-4-((R)-4-(dimethylamino)-1-(phenylthio)butan-2-ylamino)-3-(trifluoromethylsulfonyl)benzenesulfonamide] | 35 nM |
| O=S(=O)(Nc1ncnc2c1CCN(C1CCN(Cc3ccccc3-c3ccc(Cl)cc3)CC1)C2)c1ccc(N[C@H](CCN2CCOCC2)CSc2ccccc2)c(S(=O)(=O)C(F)(F)F)c1 [Example 9, (R)-N-(7-(1((4′-chlorobiphenyl-2-yl)methyl)piperidin-4-yl)-5,6,7,8-tetrahydropyrido[3,4-d]pyrimidin-4-yl)-4-(4-morpholino-1-(phenylthio)butan-2-ylamino)-3-(trifluoromethylsulfonyl)benzenesulfonamide] | 144 nM |
| [2H]C1(N2CCc3c(ncnc3NS(=O)(=O)c3ccc(N[C@H](CCN4CCN(C)CC4)CSc4ccccc4F)c(S(=O)(=O)C(F)(F)F)c3)C2)CCN(Cc2cc(F)ccc2-c2ccc(Cl)cc2)CC1 [Example 87, (R)-N-(7-(1-((4′-chloro-4-fluorobiphenyl-2-yl)methyl)-4-deuteropiperidin-4-yl)-5,6,7,8-tetrahydropyrido[3,4-d]pyrimidin-4-yl)-4-(1-(2-fluorophenylthio)-4-(4-methylpiperazin-1-yl)butan-2-ylamino)-3-(trifluoromethylsulfonyl)benzenesulfonamide] | 32 nM |
| CN1CCN(CC[C@H](CSc2ccccc2F)Nc2ccc(S(=O)(=O)Nc3ncnc4c3CCN(C3CCN(Cc5ccccc5-c5ccc(Cl)cc5)CC3)C4)cc2S(=O)(=O)C(F)(F)F)CC1 [Example 56, (R)-N-(7-(1-((4′-chlorobiphenyl-2-yl)methyl)piperidin-4-yl)-5,6,7,8-tetrahydropyrido[3,4-d]pyrimidin-4-yl)-4-(1-(2-fluorophenylthio)-4-(4-methylpiperazin-1-yl)butan-2-ylamino)-3-(trifluoromethylsulfonyl)benzenesulfonamide] | 27 nM |
| CCN1CCN(CC[C@H](CSc2ccccc2)Nc2ccc(S(=O)(=O)Nc3ncnc4c3CCN(C3CCN(Cc5ccccc5-c5ccc(Cl)cc5)CC3)C4)cc2S(=O)(=O)C(F)(F)F)CC1 [Example 23, N-{7-[1-(4′-Chloro-biphenyl-2-ylmethyl)-piperidin-4-yl]-5,6,7,8-tetrahydro-pyrido[3,4-d]pyrimidin-4-yl}-4[(R)-3-(4-ethyl-piperazin-1-yl)-1-phenylsulfanylmethyl-propylamino]-3-trifluoromethanesulfonyl-benzenesulfonamide] | 51 nM |
| [2H]C1(N2CCc3c(ncnc3NS(=O)(=O)c3ccc(N[C@H](CCN4CCOCC4)CSc4ccccc4)c(S(=O)(=O)C(F)(F)F)c3)C2)CCN(CC2=C(c3ccc(Cl)cc3)CC(C)(C)CC2)CC1 [Example 91, (R)-N-(7-(1-((2-(4-chlorophenyl)-4,4-dimethylcyclohex-1-enyl)methyl)-4-deuteropiperidin-4-yl)-5,6,7,8-tetrahydropyrido[3,4-d]pyrimidin-4-yl)-4-(4-morpholino-1-(phenylthio)butan-2-ylamino)-3-(trifluoromethylsulfonyl)benzenesulfonamide] | 41 nM |
| CN(C)CC[C@H](CSc1ccccc1)Nc1c(F)cc(S(=O)(=O)Nc2ncnc3c2CCN(C2CCN(Cc4ccccc4-c4ccc(Cl)cc4)CC2)C3)cc1F [Example 12, (R)-N-(7-(1-((4′-chlorobiphenyl-2-yl)methyl)piperidin-4-yl)-5,6,7,8-tetrahydropyrido[3,4-d]pyrimidin-4-yl)-4-(4-(dimethylamino)-1-(phenylthio)butan-2-ylamino)-3,5-difluorobenzenesulfonamide] | 3060 nM |
| CC(c1ccccc1-c1ccc(Cl)cc1)N1CCC(N2CCc3c(ncnc3NS(=O)(=O)c3ccc(N[C@H](CCN(C)C)CSc4ccccc4Cl)c(S(=O)(=O)C(F)(F)F)c3)C2)CC1 (stereo partly drawn) [Example 29, N-(7-(1-(1-(4′-chlorobiphenyl-2-yl)ethyl)piperidin-4-yl)-5,6,7,8-tetrahydropyrido[3,4-d]pyrimidin-4-yl)-4-((R)-1-(2-chlorophenylthio)-4-(dimethylamino)butan-2-ylamino)-3-(trifluoromethylsulfonyl)benzenesulfonamide] | 73 nM |
